System: c-myc in 22RV-1 cells
Assay: Human c-myc ELISA assay
Type: cell-based
Conditions: Homo sapiens; for Emax: 22Rv1, 18 h, read-out: Degradation of BRD4: Maximum inhibition (%) c-Myc ELISA in 22RV1 cells; for DC50: 22Rv1, read-out: Degradation of BRD4: DC50 (uM) c-Myc ELISA in 22RV1 cells
Method: 22RV-1 cells are seeded at 30,000 cells/well at a volume of 75 μL/well in RPMI+10% FBS media in 96-well plates and grown overnight at 37 C. Cells are dosed with compounds at 4× concentration diluted in 0.4% DMSO; compounds are serially diluted 1:3 for 8-point dose curve. 25 ul of compounds is added to cells for a final concentration starting at 300 nM-0.3 nM or 1 uM-1 nM in 0.1% DMSO and incubated for 18 hrs. Media is aspirated, cells washed 1× with PBS and aspirated. Cells are lysed in 50 ul RIPA buffer (50 mM Tris pH8, 150 mM NaCl, 1% Tx-100, 0.1% SDS, 0.5% sodium deoxycholate) supplemented with protease and phosphatase inhibitors. Plates are incubated on ice for 15 minutes then centrifuged at 4 C for 10 min at 4000 rpm. Add 50 ul of cleared lysate from 96-well assay plate into 96-well c-myc ELISA plate (Novex, Life Technologies Catalog #KH02041). Reconstitute c-myc standard with standard diluent buffer; standard curve range is 333 pg/ml-0 pg/ml, diluted 1:2 for 8-point dose curve. The rest of the assay was performed following the protocol from the c-myc ELISA kit. Data is analyzed and plotted using GraphPad Prism software. Compounds described in this application were assayed and c-myc suppression potency is listed in the following Table (A: DC50<10 nM; B: DC50 10-100 nM; C: DC50: 100-1000 nM; D: DC50>1000 nM)

CCc1ccc(C2=N[C@@H](CC(=O)Nc3ccc(OCCCOCCCOCC(=O)N[C@H](C(=O)N4C[C@H](O)C[C@H]4C(=O)NCc4ccc(-c5scnc5C)cc4)C(C)(C)C)cc3)c3nnc(C)n3-c3sc(C)c(C)c32)cc1 [Example 64, (2S,4R)-1-[(2S)-2-(2-{3-[3-(4-{2-[(9S)-7-(4-ethylphenyl)-4,5,13-trimethyl-3-thia-1,8,11,12-tetraazatricyclo[8.3.0.0^2,^6]trideca-2(6),4,7,10,12-pentaen-9-yl]acetamido}phenoxy)propoxy]propoxy}acetamido)-3,3-dimethylbutanoyl]-4-hydroxy-N-{[4-(4-methyl-1,3-thiazol-5-yl)phenyl]methyl}pyrrolidine-2-carboxamide]
Emax: 96.5%
DC50: 0.01 to 0.1 µM

Cc1ncsc1-c1ccc([C@H](C)NC(=O)[C@@H]2C[C@@H](O)CN2C(=O)[C@@H](NC(=O)COc2ccc(N3CCN(C(=O)C[C@@H]4N=C(c5ccc(Cl)cc5)c5c(sc(C)c5C)-n5c(C)nnc54)CC3)nc2)C(C)(C)C)cc1 [Example 288]
Emax: 98%
DC50: < 0.01 µM

Cc1ncsc1-c1ccc([C@H](C)NC(=O)[C@@H]2C[C@@H](O)CN2C(=O)[C@@H](NC(=O)COCCCN2CCN(C(=O)C[C@@H]3N=C(c4ccc(Cl)cc4)c4c(sc(C)c4C)-n4c(C)nnc43)CC2)C(C)(C)C)cc1 [Example 313]
Emax: 87.5%
DC50: 0.01 to 0.1 µM

Cc1ncsc1-c1ccc(CNC(=O)[C@@H]2C[C@@H](O)CN2C(=O)[C@@H](c2cc(OCCC(F)(F)CCNC(=O)C[C@@H]3N=C(c4ccc(Cl)cc4)c4c(sc(C)c4C)-n4c(C)nnc43)no2)C(C)C)cc1 [Example 297, (2S,4R)-1-[(2R)-2-{3-[(5-{2-[(9S)-7-(4-chlorophenyl)-4,5,13-trimethyl-3-thia-1,8,11,12-tetraazatricyclo[8.3.0.0^2,^6]trideca-2(6),4,7,10,12-pentaen-9-yl]acetamido}-3,3-difluoropentyl)oxy]-1,2-oxazol-5-yl}-3-methylbutanoyl]-4-hydroxy-N-{[4-(4-methyl-1,3-thiazol-5-yl)phenyl]methyl}pyrrolidine-2-carboxamide]
Emax: 97%
DC50: < 0.01 µM

Cc1ncsc1-c1ccc([C@H](C)NC(=O)[C@@H]2C[C@@H](O)CN2C(=O)[C@@H](n2cc(-c3ccnc(O[C@H]4C[C@H](NC(=O)C[C@@H]5N=C(c6ccc(Cl)cc6)c6c(sc(C)c6C)-n6c(C)nnc65)C4)c3)cn2)C(C)(C)C)cc1 [Example 234]
Emax: 80.6%
DC50: 0.01 to 0.1 µM

Cc1ncsc1-c1ccc([C@H](C)NC(=O)[C@@H]2C[C@@H](O)CN2C(=O)[C@H](C(C)C)n2cc(-c3ccnc(O[C@H]4C[C@@H](NC(=O)C[C@@H]5N=C(c6ccc(Cl)cc6)c6c(sc(C)c6C)-n6c(C)nnc65)C4)c3)cn2)cc1 [Example 219, (2S,4R)-4-hydroxy-N-[(1S)-1-[4-(4-methyl-1,3-thiazol-5-yl)phenyl]ethyl]-1-[(2S)-3-methyl-2-(4-{2-[(1,3-cis)-3-{2-[(9S)-7-(4-chlorophenyl)-4,5,13-trimethyl-3-thia-1,8,11,12-tetraazatricyclo[8.3.0.0^2,^6]trideca-2(6),4,7,10,12-pentaen-9-yl]acetamido}cyclobutoxy]pyridin-4-yl}-1H-pyrazol-1-yl)butanoyl]pyrrolidine-2-carboxamide]
Emax: 95.5%
DC50: < 0.01 µM

Cc1ncsc1-c1ccc([C@H](C)NC(=O)[C@H]2C[C@H](O)CN2C(=O)[C@@H](NC(=O)COc2ccc(O[C@H]3C[C@@H](NC(=O)C[C@@H]4N=C(c5ccc(Cl)cc5)c5c(sc(C)c5C)-n5c(C)nnc54)C3)nc2)C(C)(C)C)cc1 [Example 169]
Emax: 42.2%
DC50: > 1 µM

Cc1ncsc1-c1ccc([C@H](C)NC(=O)[C@@H]2C[C@@H](O)CN2C(=O)[C@@H](NC(=O)/C=C/c2ccc(F)c(O[C@H](C)CNC(=O)C[C@@H]3N=C(c4ccc(Cl)cc4)c4c(sc(C)c4C)-n4c(C)nnc43)c2)C(C)(C)C)cc1 [Example 161]
Emax: 97%
DC50: < 0.01 µM

Cc1ncsc1-c1ccc([C@H](C)NC(=O)[C@H]2C[C@H](O)CN2C(=O)[C@@H](NC(=O)c2cc3cc(O[C@H]4C[C@@H](NC(=O)C[C@@H]5N=C(c6ccc(Cl)cc6)c6c(sc(C)c6C)-n6c(C)nnc65)C4)ccc3o2)C(C)(C)C)cc1 [Example 332]
Emax: 61%
DC50: 0.1 to 1 µM

Cc1ncsc1-c1ccc([C@H](C)NC(=O)[C@@H]2C[C@@H](O)CN2C(=O)[C@@H](NC(=O)/C=C/c2cc(F)cc(O[C@H](C)CNC(=O)C[C@@H]3N=C(c4ccc(Cl)cc4)c4c(sc(C)c4C)-n4c(C)nnc43)c2)C(C)(C)C)cc1 [Example 202]
Emax: 94%
DC50: < 0.01 µM

Cc1ncsc1-c1ccc(CNC(=O)[C@@H]2C[C@@H](O)CN2C(=O)[C@@H](NC(=O)Cc2ccc(OCCNC(=O)C[C@@H]3N=C(c4ccc(Cl)cc4)c4c(sc(C)c4C)-n4c(C)nnc43)cc2)C(C)(C)C)cc1 [Example 80, (2S,4R)-1-[(2S)-2-{2-[4-(2-{2-[(9S)-7-(4-chlorophenyl)-4,5,13-trimethyl-3-thia-1,8,11,12-tetraazatricyclo[8.3.0.0^2,^6]trideca-2(6),4,7,10,12-pentaen-9-yl]acetamido}ethoxy)phenyl]acetamido}-3,3-dimethylbutanoyl]-4-hydroxy-N-{[4-(4-methyl-1,3-thiazol-5-yl)phenyl]methyl}pyrrolidine-2-carboxamide]
Emax: 97.5%
DC50: 0.01 to 0.1 µM

Cc1ncsc1-c1ccc([C@H](C)NC(=O)[C@@H]2C[C@@H](O)CN2C(=O)[C@@H](NC(=O)CN2CCC(O[C@H]3C[C@@H](NC(=O)C[C@@H]4N=C(c5ccc(Cl)cc5)c5c(sc(C)c5C)-n5c(C)nnc54)C3)CC2)C(C)(C)C)cc1 [Example 257, (2S,4R)-1-[(2S)-3,3-dimethyl-2-(2-{4-[(1,3-cis)-3-{2-[(9S)-7-(4-chlorophenyl)-4,5,13-trimethyl-3-thia-1,8,11,12-tetraazatricyclo[8.3.0.0^2,^6]trideca-2(6),4,7,10,12-pentaen-9-yl]acetamido}cyclobutoxy]piperidin-1-yl}acetamido)butanoyl]-4-hydroxy-N-[(1S)-1-[4-(4-methyl-1,3-thiazol-5-yl)phenyl]ethyl]pyrrolidine-2-carboxamide]
Emax: 87%
DC50: 0.01 to 0.1 µM

Cc1ncsc1-c1ccc(CNC(=O)[C@@H]2C[C@@H](O)CN2C(=O)[C@@H](NC(=O)COCCCOc2ccc(-c3ccc(NC(=O)C[C@@H]4N=C(c5ccc(Cl)cc5)c5c(sc(C)c5C)-n5c(C)nnc54)cn3)cc2F)C(C)(C)C)cc1 [Example 23]
Emax: 91%
DC50: 0.01 to 0.1 µM

Cc1ncsc1-c1ccc([C@H](C)NC(=O)[C@@H]2C[C@@H](O)CN2C(=O)[C@@H](NC(=O)COCCCOC2CN(C(=O)C[C@@H]3N=C(c4ccc(Cl)cc4)c4c(sc(C)c4C)-n4c(C)nnc43)C2)C(C)(C)C)cc1 [Example 182]
Emax: 100%
DC50: < 0.01 µM

Cc1ncsc1-c1ccc(CNC(=O)[C@@H]2C[C@@H](O)CN2C(=O)[C@@H](NC(=O)Cc2cccc(OCCCNC(=O)C[C@@H]3N=C(c4ccc(Cl)cc4)c4c(sc(C)c4C)-n4c(C)nnc43)c2)C(C)(C)C)cc1 [Example 61, (2S,4R)-1-[(2S)-2-{2-[3-(3-{2-[(9S)-7-(4-chlorophenyl)-4,5,13-trimethyl-3-thia-1,8,11,12-tetraazatricyclo[8.3.0.0^2,^6]trideca-2(6),4,7,10,12-pentaen-9-yl]acetamido}propoxy)phenyl]acetamido}-3,3-dimethylbutanoyl]-4-hydroxy-N-{[4-(4-methyl-1,3-thiazol-5-yl)phenyl]methyl}pyrrolidine-2-carboxamide]
Emax: 96%
DC50: 0.01 to 0.1 µM

Cc1ncsc1-c1ccc([C@H](C)NC(=O)[C@@H]2C[C@@H](O)CN2C(=O)[C@@H](NC(=O)CCc2cc(OC(C)CNC(=O)C[C@@H]3N=C(c4ccc(Cl)cc4)c4c(sc(C)c4C)-n4c(C)nnc43)ccc2F)C(C)(C)C)cc1 (some centres unmarked) [Example 151]
Emax: 96%
DC50: < 0.01 µM

Cc1ncsc1-c1ccc(CNC(=O)[C@@H]2C[C@@H](O)CN2C(=O)[C@@H](NC(=O)COCCN2CCC(c3ccc([C@H](C)NC(=O)C[C@@H]4N=C(c5ccc(Cl)cc5)c5c(sc(C)c5C)-n5c(C)nnc54)cc3)CC2)C(C)(C)C)cc1 [Example 52]
Emax: 93%
DC50: 0.1 to 1 µM

Cc1ncsc1-c1ccc(CNC(=O)[C@@H]2C[C@@H](O)CN2C(=O)[C@@H](NC(=O)Cc2cccc(CCCCNC(=O)C[C@@H]3N=C(c4ccc(Cl)cc4)c4c(sc(C)c4C)-n4c(C)nnc43)c2)C(C)(C)C)cc1 [Example 70, (2S,4R)-1-[(2S)-2-{2-[3-(4-{2-[(9S)-7-(4-chlorophenyl)-4,5,13-trimethyl-3-thia-1,8,11,12-tetraazatricyclo[8.3.0.0^2,^6]trideca-2(6),4,7,10,12-pentaen-9-yl]acetamido}butyl)phenyl]acetamido}-3,3-dimethylbutanoyl]-4-hydroxy-N-{[4-(4-methyl-1,3-thiazol-5-yl)phenyl]methyl}pyrrolidine-2-carboxamide]
Emax: 88.8%
DC50: 0.01 to 0.1 µM

Cc1ncsc1-c1ccc(CNC(=O)[C@@H]2C[C@@H](O)CN2C(=O)[C@@H](NC(=O)COc2ccc(O[C@H]3C[C@@H](NC(=O)C[C@@H]4N=C(c5ccc(Cl)cc5)c5c(sc(C)c5C)-n5c(C)nnc54)C3)nc2)C(C)(C)C)cc1 [Example 118]
Emax: 94.4%
DC50: < 0.01 µM
